The values that follow come from US8946238B2, “Pyrazolo[1,5-A]pyrimidines as antiviral agents” (Gilead Sciences, Inc., priority 2011, dated 2015).

In this test the test system is RSV strain A2. In words: RSV antiviral cytoprotection assay in Hep2 cells (RSV-induced cytopathic effect, Cell TiterGlo). The format is cell-based, Respiratory Syncytial Virus (RSV). The following applies: human respiratory syncytial virus, HEp-2, 0.5 μM compound; RSV A2-infected Hep2 cells; % inhibition calculated from 4-parameter dose response curve, normalized to 0% and 100%; read-out: Percent inhibition at 0.5 μM. The procedure: Antiviral activity against RSV was determined using an in vitro cytoprotection assay in Hep2 cells. […] The method used was similar to methods previously described in published literature (Chapman et al., Antimicrob Agents Chemother. 2007, 51(9):3346-53.)
Hep2 cells were obtained from ATCC (Manassas, VI) and maintained in MEM media supplemented with 10% fetal bovine serum and penicillin/streptomycin. Cells were passaged twice a week and kept at subconfluent stage. Commercial stock of RSV strain A2 (Advanced Biotechnologies, Columbia, Md.) was titered before compound testing to determine the appropriate dilution of the virus stock that generated desirable cytopathic effect in Hep2 cells.
For antiviral tests, Hep2 cells were seeded into 96-well plates 24 hours before the assay at a density of 3,000 cells/well. On a separate 96 well plate, compounds to be tested were serially diluted in cell culture media. Eight concentrations in 3-fold serial dilution increments were prepared for each tested compound and 100 uL/well of each dilution was transferred in duplicate onto plates with seeded Hep2 cells. Subsequently, appropriate dilution of virus stock previously determined by titration was prepared in cell culture media and 100 uL/well was added to test plates containing cells and serially diluted compounds. Each plate included three wells of infected untreated cells and three wells of uninfected cells that served as 0% and 100% virus inhibition control, respectively. Following the infection with RSV, testing plates were incubated for 4 days in a tissue culture incubator. After the incubation, RSV-induced cytopathic effect was determined using a Cell TiterGlo reagent (Promega, Madison, Wis.) followed by a luminescence read-out. The percentage inhibition was calculated for each tested concentration relative to the 0% and 100% inhibition controls and the EC50 value for each compound was determined by non-linear regression as a concentration inhibiting the RSV-induced cytopathic effect by 50%. Ribavirin (purchased from Sigma, St. Louis, Mo.) was used as a positive control for antiviral activity.
Compounds were also tested for antiviral activity against RSV in Hep2 cells using a 384 well format. Compounds were diluted in DMSO using a 10-step serial dilution in 3-fold increments via automation in 4 adjacent replicates each. Eight compounds were tested per dilution plate. 0.4 uL of diluted compounds were then stamped via Biomek into 384-well plates (Nunc 142761 or 164730 w/lid 264616) containing 20 μL of media (Mediatech Inc. MEM supplemented with Glutamine, 10% FBS and Pen/Strep). DMSO and a suitable positive control compound, such as 80 μM GS-329467 or 10 μM 427346 was used for the 100% and 0% cell killing controls, respectively.
Hep2 cells (1.0×10^5 cells/ml) were prepared as above in batch to at least 40 mls excess of the number of sample plates (8 mls cell mix per plate) and infected with vendor supplied (ABI) RSV strain A2 to arrive at an MOI of 1:1000 (virus:cell #) or 1:3000 (vol virus: cell vol). Immediately after addition of virus, the RSV infected Hep2 cell suspension was added to each stamped 384-well plate at 20 μl per well using a uFlow dispenser, giving a final volume of 40 μL/well, each with 2000 infected cells. The plates were then incubated for 5 days at 37° C. and 5% CO2. Following incubation, the plates were equilibrated to room temperature in a biosafety cabinet hood for 1.5 hrs and 40 μL of Cell-Titer Glo viability reagent (Promega) was added to each well via uFlow. Following a10-20 minute incubation, the plates were read using an EnVision or Victor Luminescence plate reader (Perkin-Elmer). The data was then uploaded and analyzed on the Bioinformatics portal under the RSV Cell Infectivity and 8-plate EC50-Hep2-384 or 8-plate EC50-Hep2-Envision protocols. […]

As to `Cc1cn2nc([C@@H]3CCCCN3C(=O)c3cccc4cn[nH]c34)cc2nc1N1C[C@@H](C#N)[C@@H](O)C1` [Compound 123], the inhibition at 0.5 µM was 98%.

Consider `CNC(=O)[C@H]1CN(c2nc3cc([C@@H]4CCCCN4C(=O)c4cc(Cl)ccc4NS(C)(=O)=O)nn3cc2C)CCN1` [Compound 23], for which the inhibition at 0.5 µM is 48%.

Regarding `Cc1ccc(Br)c(C(=O)N2CCCC[C@H]2c2cc3nc(N4CC[C@H](N)C4)c(C)cn3n2)c1` [Compound 90], the inhibition at 0.5 µM was 100%.

Turning to `COc1cc(C)c(C(=O)N2CCCC[C@H]2c2cc3nc(N4CC[C@H](N)C4)c(C)cn3n2)cc1C` [Compound 85], the inhibition at 0.5 µM was 100%.

Consider `Cc1cn2nc([C@@H]3CCCCN3C(=O)c3ccc(C)c(F)c3F)cc2nc1N1C[C@@H](C#N)[C@@H](O)C1` [Compound 118], for which the inhibition at 0.5 µM was 99%.

As to `Cc1ccc(C(=O)N2CCCC[C@H]2c2cc3nc(N4C[C@@H](C#N)[C@@H](O)C4)c(C)cn3n2)c(C(F)(F)F)c1` [Compound 121], the inhibition at 0.5 µM was 92%.

Consider `COc1ccc(Cl)c(C(=O)N2CCCC[C@H]2c2cc3nc(N4C[C@@H](C#N)[C@@H](O)C4)c(C)cn3n2)c1` [Compound 188], for which the inhibition at 0.5 µM was 100%.

Turning to `Cc1cn2nc([C@@H]3CCCCN3C(=O)c3cc(I)ccn3)cc2nc1N1C[C@@H](C#N)[C@@H](O)C1` [Compound 161], the inhibition at 0.5 µM is 61%.

As for `Cc1ccc(Cl)c(C(=O)N2CCCC[C@H]2c2cc3nc(N4C[C@@H](C#N)[C@@H](O)C4)c(C)cn3n2)c1` [Compound 170], the inhibition at 0.5 µM is 100%.

Take `COc1cc2ccccc2cc1C(=O)N1CCCC[C@H]1c1cc2nc(N3C[C@@H](C#N)[C@@H](O)C3)c(C)cn2n1` [Compound 174]: the inhibition at 0.5 µM was 58%.

With `Cc1cn2nc([C@@H]3CCCCN3C(=O)c3ccc(Cl)cn3)cc2nc1N1CC[C@H](N)C1` [Compound 93], the inhibition at 0.5 µM is 44%.

On to `Cc1cn2nc([C@@H]3CCCCN3C(=O)c3cc(Cl)ccc3NS(C)(=O)=O)cc2nc1N1C[C@@H]2CCN[C@@H]2C1` [Compound 16], for which the inhibition at 0.5 µM was 71%.

`Cc1cn2nc([C@@H]3CCCCN3C(=O)c3cc(Cl)ccc3NS(C)(=O)=O)cc2nc1N1C[C@@H](C#N)[C@@H](OC(=O)CCC(=O)O)C1` [Compound 207]: the inhibition at 0.5 µM was 100%.

As for `Cc1cn2nc([C@@H]3CCCCN3C(=O)c3nc(Cl)ccc3Cl)cc2nc1N1C[C@@H](C#N)[C@@H](O)C1` [Compound 152], the inhibition at 0.5 µM was 100%.

`Cc1cn2nc([C@@H]3CCCCN3C(=O)c3[nH]c4c(C)ccc(C)c4c3C)cc2nc1N1C[C@@H](C#N)[C@@H](O)C1` [Compound 134]: the inhibition at 0.5 µM is 35%.

In the case of `Cc1cn2nc([C@@H]3CCCCN3C(=O)c3nccc4ccccc34)cc2nc1N1C[C@@H](C#N)[C@@H](O)C1` [Compound 163], the inhibition at 0.5 µM is 100%.

Regarding `Cc1cc(C(=O)N2CCCC[C@H]2c2cc3nc(N4C[C@@H](C#N)[C@@H](O)C4)c(C)cn3n2)c2[nH]ncc2c1` [Compound 143], the inhibition at 0.5 µM was 100%.

Take `Cc1cn2nc([C@@H]3CCCCN3C(=O)c3cc(F)c(F)c(Cl)c3F)cc2nc1N1CC[C@H](N)C1` [Compound 28]: the inhibition at 0.5 µM is 100%.

For the compound `Cc1cn2nc([C@@H]3CCCCN3C(=O)c3cc(Cl)ccc3NS(C)(=O)=O)cc2nc1NC(C)CN` (some centres unmarked) [Compound 5], the inhibition at 0.5 µM was 100%.

For `COc1cc2ccccc2cc1C(=O)N1CCCC[C@H]1c1cc2nc(N3CC[C@H](N)C3)c(C)cn2n1` [Compound 94], the inhibition at 0.5 µM was 88%.

Take `Cc1cn2nc([C@@H]3CCCCN3C(=O)c3ccc4cnccc4n3)cc2nc1N1CC[C@H](N)C1` [Compound 41]: the inhibition at 0.5 µM is 4%.

On to `COc1ccc2ccccc2c1C(=O)N1CCCC[C@H]1c1cc2nc(N3CC[C@H](N)C3)c(C)cn2n1` [Compound 97], for which the inhibition at 0.5 µM was 100%.

On to `Cc1cn2nc([C@@H]3CCCCN3C(=O)c3cccc(F)n3)cc2nc1N1C[C@@H](C#N)[C@@H](O)C1` [Compound 160], for which the inhibition at 0.5 µM was 71%.

For the compound `Cc1cn2nc([C@@H]3CCCCN3C(=O)c3c(F)ccc(C)c3F)cc2nc1N1C[C@@H](C#N)[C@@H](O)C1` [Compound 124], the inhibition at 0.5 µM is 100%.

Turning to `Cc1cc(F)ccc1C(=O)N1CCCC[C@H]1c1cc2nc(N3CC[C@H](N)C3)c(C)cn2n1` [Compound 77], the inhibition at 0.5 µM is 100%.

For the compound `Cc1cn2nc([C@@H]3CCCCN3C(=O)c3cc(Cl)ccc3NS(C)(=O)=O)cc2nc1N1C[C@@H](C#N)[C@@H](OC(=O)[C@H](N)C(C)C)C1` [Compound 204], the inhibition at 0.5 µM was 100%.

As to `Cc1cn2nc([C@@H]3CCCCN3C(=O)c3cc(Cl)ccc3NS(C)(=O)=O)cc2nc1N1C[C@H](C)NC[C@H]1C` [Compound 24], the inhibition at 0.5 µM was 30%.

Regarding `Cc1cn2nc([C@@H]3CCCCN3C(=O)c3ccc4cccnc4n3)cc2nc1N1CC[C@H](N)C1` [Compound 50], the inhibition at 0.5 µM is 15%.

Regarding `Cc1cn2nc([C@@H]3CCCCN3C(=O)c3ncc(Cl)cc3C(F)(F)F)cc2nc1N1CC[C@H](N)C1` [Compound 104], the inhibition at 0.5 µM is 56%.

For `Cc1cn2nc([C@@H]3CCCCN3C(=O)c3ccc(F)c(F)c3C)cc2nc1N1CC[C@H](N)C1` [Compound 72], the inhibition at 0.5 µM was 100%.

Consider `Cc1cn2nc([C@@H]3CCCCN3C(=O)c3ccc4ncccc4c3)cc2nc1N1CC[C@H](N)C1` [Compound 68], for which the inhibition at 0.5 µM is 37%.

For `Cc1cn2nc([C@@H]3CCCCN3C(=O)c3cc(Cl)ccc3NS(C)(=O)=O)cc2nc1NCC1CCCNC1` (some centres unmarked) [Compound 15], the inhibition at 0.5 µM was 82%.

`Cc1cn2nc([C@@H]3CCCCN3C(=O)c3c(Cl)nc4ccccn34)cc2nc1N1CC[C@H](N)C1` [Compound 56]: the inhibition at 0.5 µM is 84%.

As for `Cc1cc(C(=O)N2CCCC[C@H]2c2cc3nc(N4CC[C@H](N)C4)c(C)cn3n2)c2[nH]ncc2c1` [Compound 64], the inhibition at 0.5 µM was 100%.

With `Cc1cn2nc([C@@H]3CCCCN3C(=O)c3cccc4ccnn34)cc2nc1N1CC[C@H](N)C1` [Compound 54], the inhibition at 0.5 µM is 100%.

In the case of `Cc1ccc(Br)cc1C(=O)N1CCCC[C@H]1c1cc2nc(N3C[C@@H](C#N)[C@@H](O)C3)c(C)cn2n1` [Compound 112], the inhibition at 0.5 µM is 100%.

For the compound `Cc1cn2nc([C@@H]3CCCCN3C(=O)c3c(Cl)cnn3C(C)C)cc2nc1N1C[C@@H](C#N)[C@@H](O)C1` [Compound 190], the inhibition at 0.5 µM is 100%.

In the case of `Cc1cn2nc([C@@H]3CCCCN3C(=O)c3cccc4c3OCO4)cc2nc1N1CC[C@H](N)C1` [Compound 61], the inhibition at 0.5 µM is 100%.

Consider `Cc1cn2nc([C@@H]3CCCCN3C(=O)c3ccccc3Cl)cc2nc1N1CC[C@H](N)C1` [Compound 69], for which the inhibition at 0.5 µM was 100%.

`Cc1cn2nc([C@@H]3CCCCN3C(=O)c3c(F)cccc3Cl)cc2nc1N1CC[C@H](N)C1` [Compound 82]: the inhibition at 0.5 µM was 100%.

Consider `COC(=O)[C@H]1C[C@@H](N)CN1c1nc2cc([C@@H]3CCCCN3C(=O)c3cc(Cl)ccc3NS(C)(=O)=O)nn2cc1C` [Compound 12], for which the inhibition at 0.5 µM is 89%.

With `CCc1ccc(C(=O)N2CCCC[C@H]2c2cc3nc(N4CC[C@H](N)C4)c(C)cn3n2)nc1` [Compound 110], the inhibition at 0.5 µM was 36%.

Take `Cc1cn2nc([C@@H]3CCCCN3C(=O)c3cccc4c3cnn4C)cc2nc1N1CC[C@H](N)C1` [Compound 98]: the inhibition at 0.5 µM is 97%.

With `Cc1cn2nc([C@@H]3CCCCN3C(=O)c3cccc(F)c3C)cc2nc1N1C[C@@H](C#N)[C@@H](O)C1` [Compound 172], the inhibition at 0.5 µM is 100%.

A word on the inhibition: it is the relative decrease from the control value, in per cent.
